This is an account of results in patent US8097728B2, “Iminosugar compounds with antiflavirus activity” (Philadelphia Health & Education Corporation, priority 2007, dated 2012).

Entries after “also recorded” stand apart in the source; their conditions may differ. Like-named read-outs stand apart in the source and are kept apart here.

One series deals with ER glucosidase. The note with it: 6000 uM; cited from earlier work.
The next series concerns HBV. Put plainly: HBV antigen assay: LHBs and MHBs secreted by HepG2.2.15 cells, immunoblot. Particulars: 7 days. It is filed as cell-based, Hepatitis B virus. The protocol:
MHBs and LHBs are HBV envelope proteins that are sensitive to glucosidase inhibition and inhibition of these important viral glycoproteins serves as a surrogate for HBV growth. […] To assess the activity of this compound in the context of viral replication, HepG2 2.2.15 cells were incubated with the indicated DNJ derived compound. HepG 2.2.15 cells secrete readily detectable amounts of MHBs and LHBs into the culture medium. After 7 days of incubation, the amount of HBV M and L in the culture medium was determined by western blot. […] The nature of the selective antiviral activity is not known, but may be due to cell specific activity since HBV is studied in human liver derived hepatoblastoma HepG2 cells and BVDV and WNV were studied in MDBK and BHK cells, respectively.
HBV antigen assay: Antiviral activity against HBV was determined using HepG2.2.15 cells, which contain a dimer of the HBV genome and express all viral gene products, including envelope glycoproteins (Sells, Chen, and Acs, 1987). Briefly, HepG2.2.15 cells were seeded in 24 well trays, and allowed to grow to confluence prior to addition of drug, as described previously (Simsek et al., 2005). After seven days of treatment, supernatants were harvested and assayed for the presence of the Large Hepatitis B (LHBs) and middle Hepatitis B (MHBs) glycoproteins by electrophoresis through 12% polyacrylamide gels and immunoblotting with a polyclonal antibody that recognizes the pre-S2 region of the LHBs and MHBs proteins (Research Diagnostics Inc., Flanders, N.J.) as described (Simsek et al., 2005). Quantitation was performed using AlphaEase software (Alphalnnotech).

A further series concerns DV serotype 2. Briefly: DV yield reduction assay in BHK cells. The format is cell-based, Dengue virus (DV) serotype 2. The protocol: In the DV infection assay, a serotype 2 DV was used to infect BHK cells in the presence or absence of testing compounds and viruses produced after 72 hours were titered in a manner similar to the WNV assay. In this experiment, N-butylcyclohexyl-DNJ (SP169), N-pentyl(1-hydroxylcyclohexyl)-DNJ (OSL-95II), […] and N-propylcyclohexyl-DNJ (SP173) were compared with NNDNJ (Wu et al., 2002) and castanospermine. […] All compounds had no toxicity at the highest concentrations used in this experiment (FIG. 5B, Table 1).

The nature of series [1]: MTT compound toxicity assay on BHK cells. It is filed as cell-based. Particulars: hamster; WNV (BHK); MTT, 50% reduction relative to DMSO. The protocol: (§1) Compound toxicity assay. Compound cytotoxicity was assessed by using an MTT based toxicity assay kit (Sigma, St. Louis, Mo.) as described elsewhere (Gu et al., 2006). Briefly, cells cultured under conditions identical to those used in the viral assay were incubated with various concentrations of the compound for 72 hours. MTT was added to the media to a final concentration of 0.5 mg/ml and was incubated for 3 hours at 37 C. After the culture media was removed, formazan crystals was dissolved by adding 150 ul of solubilization solution (10% Triton X-100, 0.1 N HCl in anhydrous isopropanol) for 15-30 minutes. The absorbance of the dissolved formazan was measured spectrophotometrically at 570 nm with absorbance at 690 nm as background.

In a further series the test system is WNV. Put plainly: WNV yield reduction assay in BHK cells. The protocol:
Cells and viruses. BVDV-free MDBK cells (CCL 22) were obtained from the American Type Culture Collection and propagated in DMEM/F12 essential medium supplemented with penicillin (500 U/ml), streptomycin (500 U/ml), and 10% heat inactivated horse serum (Invitrogen). Cells were maintained in a humidified incubator at 37° C. with 5% CO2. BVDV (NADL strain) was obtained from Dr. Rubin Donis (Univ. of Nebraska-Lincoln). For infections, virus inoculum was added in complete medium and adsorbed for 1 h at 37° C., the inoculum was then removed, the cells washed once with medium and fresh medium containing compounds added. Virus stocks were prepared by freeze-thawing the infected cells and culture supernatant three times followed by centrifugation at 1,000 g for 5 min. Stock titers were determined, and stocks were aliquoted and stored at −80° C. WNV was obtained from a cDNA clone of a human 2002 isolate from Texas (Rossi et al., 2005); virus obtained from BHK cells electroporated with the in vitro synthesized RNA from this cDNA clone was passaged in Vero cells before use in antiviral assays. Dengue virus (DV) serotype 2 was a New Guinea C virus that had been passaged 28 times in suckling mouse brain, twice in Vero cells, and once in C6/36 mosquito cells.
WNV and DV Yield Reduction assay: Antiviral activity against WNV was evaluated in a yield reduction assay. Briefly, BHK cells were plated in 96-well plates at a concentration of 2.5×10^4 cells/well. 24 hours after plating, the cells were infected with WNV at an MOI of 0.05. After 1 hour the inoculum was aspirated and the cells re-fed with fresh DMEM containing dilutions of the test compounds. Plates were then incubated at 37° C. for 48 hours, the supernatant collected and the WNV produced titered. For virus titration, Vero cells were plated in 96-well plates at 8.0×10^3 cells/well and incubated overnight. The Vero cell monolayers were then infected for 1 hour with various dilutions of the WNV supernatant, overlaid with media containing 0.6% tragacanth (ICN, CA) and incubated at 37° C. for 24-30 hours. The culture media was then aspirated; the plate was rinsed, air-dried, and fixed with 50 ul/well acetone/methanol (50:50). Viral foci were detected for enumeration by immunostaining as described previously (Rossi et al., 2005). For antiviral testing against DV, DV serotype 2, drug incubations and titrations were performed essentially as described for WNV, except that the virus was harvested from drug-treated cultures 72 hrs after infection, and foci were stained using hybridoma culture fluid harvested from monoclonal antibody-producing hybridoma clone D1-4G2 (Gentry et al., 1982) following 3 days of incubation on Vero cells under the tragacanth overlay.
For this purpose, BHK cells were infected with WNV at an moi of 0.05, and incubated in either the absence or presence of various concentrations of N-butylcyclohexyl-DNJ (SP169) and N-propylcyclohexyl-DNJ (SP173). After three days, the amount of progeny virus produced was determined by plaque assays on indicator Vero cells.

For the next series, the system named is BVDV. Briefly: BVDV single cycle virus yield reduction assay in MDBK cells. It is filed as cell-based, Bovine Viral Diarrhea virus (NADL strain). Here is the method:
BVDV antiviral and plaque assays. To evaluate antiviral activity against BVDV, a single cycle virus yield reduction assay was performed in the presence of various concentrations of the test compounds. Specifically, 2×10^5 MDBK cells/well were plated in 24 well plates. Twenty-four hours later, the cells were infected with BVDV at a multiplicity of infection (moi) of 0.5 PFU/cell in 100 ul complete media. After adsorption for 1 h at 37° C., the inoculum was removed, and cells were washed with media before media containing vehicle or various concentrations of each compound was added. At 22 hour post infection, both cell and media were collected and freeze-thawed three times before the virus was titered. For BVDV virus titer determination, 10^−2, 10^−3, and 10^−4 dilutions of virus were inoculated onto MDBK cells as described previously (Gu et al., 2000; Jordan et al., 2002). After absorption and washing the cells were overlaid with medium containing methylcellulose or soft agar and incubated at 37° C. for 3 days or until plaques were visible. Plaques were counted directly under the microscope or after staining with crystal violet in 70% methanol for 15 min.
(§2) The anti-viral activity of this family of compounds against BVDV was then determined by a single cycle viral yield reduction assay in Madin Darby Bovine Kidney (MDBK) cells where the compounds are incubated with cells for 20 hours during the period of infection. Yields of virus were then determined by plaque assay on new MDBK cell monolayers. Compound toxicity was measured by MTT assay and the CC50 determined as the concentration of compound producing 50% reduction in absorption readings. […] This is consistent with previous findings in which oxygenation and methoxylation of side chains emanating from the ring nitrogen were less toxic in tissue culture and in animals than straight chain alkylated DNJs (Mehta et al., 2002b).

Series [2] in a line: MTT compound toxicity assay on MDBK cells. It is filed as cell-based, Bovine. The note with it: bovine, BVDV (MDBK), concentration reducing MTT values (570 nm) by 50% relative to DMSO. The protocol: as §1, §2
Background: Tetrazolium dyes change colour on reduction, which living cells bring about.

Another series relates to MDBK cells. Put plainly: MTT compound toxicity assay on MDBK cells. Particulars: 72 hours. It is filed as cell-based, Bovine. Here is the method:
as §1, §2

For another series, the system named is MHBs. The note with it: MHBs expressed transiently in cells; read-out: IC50, reduction of secretion of MHBs; cited from earlier work.
The test system of a further series is BHK cells. Put plainly: MTT compound toxicity assay on BHK cells. It is filed as cell-based. Here is the method:
as §1

With `OC[C@H]1NC[C@H](O)[C@@H](O)[C@@H]1O` [DNJ, 1,5-dideoxy-1,5-imino-D-glucitol, reference compound], the “inhibition of the ER glucosidase” value in the series with ER glucosidase was “at least 90%”. Besides, in the series on HBV (6000 uM (6 mM), FIG. 6B), the “reduction of MHBs and LHBs in culture medium (in words)” value was “antiviral activity at this dose is consistent with previous findings”.

A word on the CC50: it is the concentration that lowers cell viability or growth by half. Read a low CC50 as harm at low concentration. Take `OC[C@@H]1[C@@H](O)[C@H](O)[C@@H](O)CN1CCCCCC1(O)CCCCC1` [OSL-95II, N-pentyl(1-hydroxycyclohexyl)-1,5-dideoxy-1,5-imino-D-glucitol]: the IC50 was 2000 nM in the series with DV serotype 2 (Dengue virus, BHK, 72 h); 1000 to 2000 nM in the series on DV serotype 2 (Dengue virus, BHK, 72 h, read-out: IC50 against DV); 4500 nM in the series with WNV (West Nile virus, BHK, 48 h); 3000 nM in the series on BVDV (Bovine viral diarrhea virus isolates and strains, MDBK). Besides, the selectivity ratio at 72 h with DV serotype 2 (hamster, DV (BHK), read-out: SI (Selective Index, CC50/IC50)) is more than 50. Further, the CC50 at 72 h in series [1] was more than 100000 nM; in series [2], more than 500000 nM. The selectivity ratio at 48 h in the series on WNV (hamster) is more than 9. Besides, the selectivity ratio at 20 h with BVDV (bovine, BVDV (MDBK), read-out: SI (Selective Index, CC50/IC50)) is more than 166. In addition, the “toxicity in MDBK cells (in words)” value in the series with MDBK cells (MTT, FIG. 4B) is listed as “much less toxic than N-pentylcyclohexyl-DNJ (OSL-1); also recorded: significantly less cytotoxic against MDBK cells”.

Take `OC[C@@H]1[C@@H](O)[C@H](O)[C@@H](O)CN1CCCCC1CCCCC1` [SP169, N-butylcyclohexyl-DNJ]: the “SI (Selective Index, CC50/IC50)” value in the series with DV serotype 2 (DV (BHK)) is reported as more than 66; with WNV (WNV (BHK)), more than 40; in the series with BVDV (BVDV (MDBK)), more than 100. Moreover, the IC50 in the series on DV serotype 2 (DV (BHK), serotype 2, 72 hrs, read-out: IC50) was 1500 nM; with MHBs it was not above 35000 nM; with WNV (WNV (BHK), plaque number reduced by 50% relative to DMSO, 48 hours) it was 2500 nM; in the series on WNV (read-out: concentration inhibiting 50% of the WNV progeny produced, text to FIG. 3B, BHK cells, moi 0.05) it was 5000 nM; in the series with BVDV (tissue culture, data not shown, read-out: concentration inhibiting 50% of the yield of BVDV), 3000 nM. The “inhibition of secretion of viral glycoproteins MHBs and LHBs (in words)” value with HBV (50 uM, FIG. 6A) is on record as “unable to inhibit secretion of viral glycoproteins”. For the same molecule, in the series on BHK cells (BHK cells, measured in parallel to WNV assay, data not shown), the “concentration without any detectable cell toxicity (highest concentration tested)” value turned out to be 100 µM. In addition, the CC50 was more than 100000 nM with BHK cells (WNV (BHK), MTT, 50% reduction relative to DMSO) and 300000 nM with MDBK cells (BVDV (MDBK), concentration reducing MTT values (570 nm) by 50% relative to DMSO). Besides, in the series on WNV (BHK cells, moi 0.05, FIG. 3B / 4D), the “antiviral activity against WNV (in words)” value is listed as “comparable to NNDNJ in activity”.
